The record followed here is patent publication US5530161A, “Hydroxamic acid based collagenase inhibitors” (priority 1994, dated 1996).

One test has as its target T1, collagenase (Homo sapiens, UniProt P03956).
T1 sequence (P03956 100-469): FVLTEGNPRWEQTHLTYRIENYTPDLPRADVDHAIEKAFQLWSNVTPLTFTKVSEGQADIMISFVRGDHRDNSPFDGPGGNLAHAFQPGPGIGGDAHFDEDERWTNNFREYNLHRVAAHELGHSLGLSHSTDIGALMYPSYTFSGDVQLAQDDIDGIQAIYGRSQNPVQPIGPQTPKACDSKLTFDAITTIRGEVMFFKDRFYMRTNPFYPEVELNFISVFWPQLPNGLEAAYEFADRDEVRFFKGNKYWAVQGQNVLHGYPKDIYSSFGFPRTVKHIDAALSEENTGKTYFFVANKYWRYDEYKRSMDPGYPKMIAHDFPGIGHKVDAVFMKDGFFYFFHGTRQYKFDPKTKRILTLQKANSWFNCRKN
As to conditions: for IC50: collagenase, 37°, 16 hours, pH 7.5, 14C collagen.

A further test has as its target stromelysin (Homo sapiens, UniProt P08254). The experiment in a line: Stromelysin inhibition activity (14C-acetylated casein digestion, Cawston et al). Type of test: biochemical.

Chain of stromelysin (P08254 100-477): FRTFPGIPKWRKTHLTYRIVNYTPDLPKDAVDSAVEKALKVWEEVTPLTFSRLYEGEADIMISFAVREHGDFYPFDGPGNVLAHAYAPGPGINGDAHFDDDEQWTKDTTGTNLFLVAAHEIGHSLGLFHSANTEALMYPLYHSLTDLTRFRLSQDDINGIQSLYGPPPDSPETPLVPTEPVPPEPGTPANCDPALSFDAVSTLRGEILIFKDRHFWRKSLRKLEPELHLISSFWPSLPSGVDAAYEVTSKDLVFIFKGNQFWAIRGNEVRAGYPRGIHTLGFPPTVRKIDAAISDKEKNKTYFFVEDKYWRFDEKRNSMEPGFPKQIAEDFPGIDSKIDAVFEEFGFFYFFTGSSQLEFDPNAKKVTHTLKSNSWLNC
From the text for collagenase: The collagen was acetylated ^14 C collagen prepared by the method of Cawston and Murphy (Methods in Enzymology, 80, 711, 1981), hereby incorporated by reference. The samples were centrifuged to sediment undigested collagen and an aliquot of the radioactive supernatant removed for assay on a scintillation counter as a measure of hydrolysis.

Regarding `CNC(=O)[C@H](Cc1ccccc1)NC(=O)[C@H](CC(C)C)[C@H](CSc1ccccc1)C(=O)NO` [Example 1, [4-(N-Hydroxyamino)-2R-isobutyl-3S-(phenylthiomethyl)-succinyl]-L-phenylalanine-N-methylamide], the IC50 was 20 nM on collagenase and 10 nM against stromelysin (stromelysin, 37°, 16 hours, pH 7.5, 14C acetylated casein).
As to `CNC(=O)[C@H](Cc1ccccc1)NC(=O)[C@H](CC(C)C)[C@H](CSc1cccs1)C(=O)NO` [Example 2, [4-(N-Hydroxyamino)-2R-isobutyl-3S-(thienylthiomethyl)succinyl]-L-phenylalanine-N-methylamide], on collagenase (qualitative statement), the “collagenase-inhibiting activity (in words)” value is reported as “good”. Besides, on stromelysin (qualitative statement, protoglycanase = stromelysin (b9)), the “protoglycanase-inhibiting activity (in words)” value is given as “good”.
As for `CNC(=O)[C@H](Cc1ccccc1)NC(=O)[C@H](CC(C)C)[C@H](CS)C(=O)NO` [Example 5, [4-(N-Hydroxyamino)-2R-isobutyl-3S-(mercaptomethyl)succinyl]-L-phenylalanine-N-methylamide], the IC50 on collagenase stood at 3 nM. In other words, the single-digit nanomolar range.
